{
  "source": "patent US9636409B2",
  "about": "“Enzyme and receptor modulation using covalent conjugates of alpha,alpha-disubstituted glycine esters” (GlaxoSmithKline Intellectual Property Development Limited, priority 2008, dated 2017)",
  "key": {"[1]": {"tested_on": "cell lysate from U937 cells", "assay": "Broken cell carboxylesterase assay (U937 cell extract)", "assay_type": "in vitro ADME", "details": "ester 2.5 μM", "procedure": "Broken Cell Carboxylesterase Assay\nAny given compound of the present invention wherein ester conjugate according to the invention may be tested to determine whether it meets the requirement that it be hydrolysed by intracellular esterases, by testing in the following assay.\nPreparation of Cell Extract\nU937 or HCT 116 tumour cells (˜10^9) were washed in 4 volumes of Dulbeccos PBS (˜1 liter) and pelleted at 525 g for 10 min at 4° C. This was repeated twice and the final cell pellet was re-suspended in 35 mL of cold homogenising buffer (Trizma 10 mM, NaCl 130 mM, CaCl2 0.5 mM pH 7.0 at 25° C.). Homogenates were prepared by nitrogen cavitation (700 psi for 50 min at 4° C.). The homogenate was kept on ice and supplemented with a cocktail of inhibitors at final concentrations of: • Leupeptin 1 μM • Aprotinin 0.1 μM • E64 8 μM • Pepstatin 1.5 μM • Bestatin 162 μM • Chymostatin 33 μM\nAfter clarification of the cell homogenate by centrifugation at 525 g for 10 min, the resulting supernatant was used as a source of esterase activity and was stored at −80° C. until required. […]\nHydrolysis of esters to the corresponding carboxylic acids can be measured using the cell extract, prepared as above. […] After centrifugation at 12000 g for 5 min, samples were analysed for the ester and its corresponding carboxylic acid at room temperature by LCMS (Sciex API 3000, HP1100 binary pump, CTC PAL). […]"}, "[2]": {"tested_on": "U937 cells", "assay": "Cell accumulation assay in U937 cells", "assay_type": "in vitro ADME", "details": "U937 versus HUT 78; result in words", "procedure": "Cells (8×10^4/mL) were incubated at 37° C. in culture medium containing 6 μM compound in a 5% (v/v) CO2-humidified atmosphere. Incubations were terminated after 6 h by centrifugation of 25 mL aliquots of the cell suspension at 300 g for 5 minutes at 4° C. 0.2 mL samples of the culture media supernatants were added to 4 volumes of acetonitrile (Sigma-Aldrich). After decanting the supernatant, the residual cell pellet (2×10^6 cells) was extracted into 1 mL of acetonitrile. Samples were then analysed for the ester and acid metabolite at room temperature by LC/MS/MS (Sciex API3000). Chromatography was based on a MeCN (75×21 mm) column with a 5-95% (v/v) acetonitrile, 0.1% (v/v) formic acid mobile phase. For the zero time samples, the cell suspension was chilled and centrifuged as soon as the ester had been added and then extracted into acetonitrile as described. Levels in cells are expressed as ng/mL."}},
  "data": [
    {"compound": "CC(C)(NCCc1ccc(-n2c(N)c(C(=O)c3ccc(F)cc3F)ccc2=O)cc1)C(=O)OC1CCCC1", "note": "[Example 1]", "values": [
      {"measurement": "Cleavage by cell lysate from U937 cells", "setting": "[1]", "value": 165, "unit": "pg/mL/min"},
      {"measurement": "accumulation in monocytic versus non-monocytic cell line", "setting": "[2]", "value": "only accumulates in the monocytic cell line"}
    ]}
  ]
}
